Values quoted from earlier work, collected in US20140100283A1, “Method to Increase Absorption and Bioavailability of Oral Glutathione” (Atlantic Pro Nutrients, Inc. dba XYMOGEN, priority 2012, published 2014).

Details: in vivo

For N[C@@H](CCC(=O)N[C@@H](CS)C(=O)NCC(=O)O)C(=O)O [glutathione, Glutathione], the “increase in circulating glutathione after oral administration” value is listed as “does not increase circulating glutathione to a clinically beneficial extent”.
